# Test results as given in article PMC5321434, “Dihydrobenz[e][1,4]oxazepin-2(3H)-ones, a new anthelmintic chemotype immobilising whipworm and reducing infectivity in vivo” (PLoS Neglected Tropical Diseases, 2017).
# Read-outs that look alike come from different tables or passages of the source.
# B1: papain (protein, UniProt P00784 134-345, looked up)
# Papain: IPEYVDWRQKGAVTPVKNQGSCGSCWAFSAVVTIEGIIKIRTGNLNEYSEQELLDCDRRSYGCNGGYPWSALQLVAQYGIHYRNTYPYEGVQRYCRSREKGPYAAKTDGVRQVQPYNEGALLYSIANQPVSVVLEAAGKDFQLYRGGIFVGPCGNKVDHAVAAVGYGPNYILIKNSWGTGWGENGYIRIKRGTGNSYGVCGLYTSSFYPVKN
# notes: purified protease
# Legend:
# [1] = system: CMT-93 murine rectal epithelial cells; assay: WST-8 cytotoxicity assay; assay type: cell-based, mouse; settings: Mus musculus, CMT93; CMT-93 cells, 72 hours, maximum tested concentration 100μM, n = 8, 95% confidence interval in parentheses
# Method: (§1) CMT-93 murine rectal epithelial cells were maintained in Dulbecco's Modified Eagle's Medium (DMEM) with 10% fetal calf serum (FCS) and 1% penicillin-streptomycin solution (10,000U/ml). Cells were plated in 96-well tissue culture plates at a density of 2x10^2 cells per well in a volume of 100μl, and cultured for 96 hours (37°C, 5% CO2) until reaching 30% confluence. The growth medium was removed and replaced with treatment media (DMEM, 1% FCS, 1% penicillin-streptomycin solution, 100μl assay volume) supplemented with vehicle alone (DMSO), test compounds or chlorpromazine, a positive control for cytotoxicity (final concentrations from 0 to 100μM). Maximum vehicle concentration for all compounds was 0.5% DMSO. Cells were cultured with the test compounds for 72 hours before cytotoxicity measurement. The WST-8 assay was performed using the Cell Counting Kit– 8 (Sigma Aldrich # 96992). 10μl of the CCK-8 solution was added to each well, plates were incubated for a further 2 hours, before absorbance was measured at 450nm using a microplate reader. This assay measures the ability of metabolically active cells to reduce a water-soluble formazan dye. Results were analysed using GraphPad Prism and fitted using a log-logistic model.
# [2] = system: CMT-93 murine rectal epithelial cells; assay: Neutral red cytotoxicity assay; assay type: cell-based, mouse; settings: Mus musculus, CMT93; CMT-93 cells, 72 hours, maximum tested concentration 100μM, n = 8, 95% confidence interval in parentheses
# Method: (§2) CMT-93 murine rectal epithelial cells were maintained in Dulbecco's Modified Eagle's Medium (DMEM) with 10% fetal calf serum (FCS) and 1% penicillin-streptomycin solution (10,000U/ml). Cells were plated in 96-well tissue culture plates at a density of 2x10^2 cells per well in a volume of 100μl, and cultured for 96 hours (37°C, 5% CO2) until reaching 30% confluence. The growth medium was removed and replaced with treatment media (DMEM, 1% FCS, 1% penicillin-streptomycin solution, 100μl assay volume) supplemented with vehicle alone (DMSO), test compounds or chlorpromazine, a positive control for cytotoxicity (final concentrations from 0 to 100μM). Maximum vehicle concentration for all compounds was 0.5% DMSO. Cells were cultured with the test compounds for 72 hours before cytotoxicity measurement. Following the WST-8 assay, the medium was removed, cells were washed with 100μl PBS and then 100μl of neutral red medium (DMEM, 1% FBS and 33μg/ml neutral red dye (Sigma Aldrich #N2889) were added to each well, followed by incubation for a further 2 hours. The neutral red medium was removed, cells washed with 100μl of PBS and 100μl of destain solution (50% ethanol, 49% distilled water and 1% glacial acetic acid) were added. Each assay plate was shaken rapidly for 10 minutes before absorbance was measured at 540nm using a microplate reader. This assay measures the ability of living cells to actively take up the neutral red dye. Results were analysed using GraphPad Prism and fitted using a log-logistic model.
# [3] = system: adult T. muris; assay: Ex vivo adult T. muris automated motility assay (primary/secondary screen at 100 μM and dose-response); parameters: species or system Trichuris muris; settings: for EC50: Trichuris muris; for COMBINED_SCREEN_ACTIVITY: combined primary and secondary screen minus log fold change in movement, adult T. muris; for COMBINED_SCREEN_ACTIVITY / PRIMARY_SCREEN_MINUS_LOG_FOLD_CHANGE_MOVEMENT / SECONDARY_SCREEN_MINUS_LOG_FOLD_CHANGE_MOVEMENT: 100 μM; for PRIMARY_SCREEN_MINUS_LOG_FOLD_CHANGE_MOVEMENT: primary screen; for PRIMARY_SCREEN_MINUS_LOG_FOLD_CHANGE_MOVEMENT / SECONDARY_SCREEN_MINUS_LOG_FOLD_CHANGE_MOVEMENT: adult T. muris motility; for SECONDARY_SCREEN_MINUS_LOG_FOLD_CHANGE_MOVEMENT: secondary screen
# How it was run: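 Motility scored after 24 h (37 °C, 5% CO2) by automated imaging of pixel intensity variance, one worm per well, four weekly biological replicates. Worms came from SCID mice infected orally with 200 eggs, harvested day 35; screening at 100 μM final in RPMI-1640/antibiotics, 1% DMSO; curves fitted with four-parameter log-logistic model.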
# [4] = system: embryonated T. muris eggs; assay: In vivo establishment of infection by compound-treated embryonated eggs; parameters: species or system Trichuris muris; settings: eggs soaked 14 days at 100μM
# Method: 100 infective embryonated eggs were incubated with water, water plus DMSO vehicle, or test compounds at a final concentration of 100μM for 14 days at room temperature. Eggs were then washed, re-suspended in water and 30 eggs given to a mouse via oral gavage. At day 15 post-infection, mice were culled and the number of worms present in the caecae and colon was counted. One data point was excluded: a water control individual mouse where there were technical difficulties with the oral gavage leading to the mouse regurgitating some of the T. muris eggs. It was ear marked at day of gavage and removed from the analysis.
# We collected data using the same experimental design on different occasions, these are referred to as batches. Data were obtained from three batches (DMSO and water controls, batches [A,B,C]) or two batches (OX02983 [A,C], OX03153 [B,C]) with the total number of mice used, n, as follows: DMSO: 14, water: 16, OX02983: 10, OX03153: 12. The data were analysed by 2-way ANOVA (worms ~ treatment + batch + treatment * batch). There was no significant interaction effect (P = 0.14) or effect of batch (P = 0.47). We therefore combined the data from the three batches. […] We then conducted a post-hoc test using Tukey’s honest significant difference test.
# [5] = WST-8 cytotoxicity assay; assay type: cell-based, mouse; settings: mouse, CMT-93 rectal epithelial cells; resynthesised compound, WST-8 cytotoxicity; read-out: ResynCytotoxityWST-8(EC50uM)
# Method: as §1
# [6] = Neutral red cytotoxicity assay; assay type: cell-based, mouse; settings: mouse, CMT-93 rectal epithelial cells; resynthesised compound, neutral red cytotoxicity; read-out: ResynCytotoxicityNeutralRed(EC50uM)
# Method: as §2
# [7] = system: T. muris; settings: associated with cuticular damage; cited from earlier work
# [8] = system: T. muris; settings: associated with damage to nematode cuticle; cited from earlier work
# [9] = system: T. trichiura; settings: single dose; no reference given; cited from earlier work
# [10] = values of Fig 5 shown for comparison, read-out: EC50 in adult Trichuris paralysis assay
# [11] = resynthesised compound, adult T. muris paralysis, read-out: ResynActivityTmurisAdultParalysis(EC50uM)
molecule,measurement,setting,value
"CN(C)CCCN1c2ccccc2Sc2ccc(Cl)cc21 [Chlorpromazine, reference compound]",EC50,[1],9 µM
same,EC50,[2],10 µM
"O=C1COCc2cc(-c3cccnc3)ccc2N1CC1CCCCC1 [OX02993, 1-(Cyclohexylmethyl)-7-(pyridin-3-yl)-1,5-dihydrobenzo[e][1,4]oxazepin-2(3H)-one]",EC50,[3]; [10],52 µM
same,EC50,[1],> 100 µM
same,EC50,[2],> 100 µM
"Cc1ccc(CN2C(=O)COCc3cc(Br)ccc32)cc1 [OX03146, 7-Bromo-1-(4-methylbenzyl)-1,5-dihydrobenzo[e][1,4]oxazepin-2(3H)-one]",EC50,[3]; [10],35 µM
same,EC50,[1],63 µM
same,EC50,[2],47 µM
"Cc1ccc(CN2C(=O)COCc3cc(-c4ccncc4)ccc32)cc1 [OX02983, 1-(4-Methylbenzyl)-7-(pyridin-4-yl)-1,5-dihydrobenzo[e][1,4]oxazepin-2(3H)-one]",EC50,[3]; [10],50 µM
same,Median worms establishing infection,"[4]; 30 eggs by oral gavage, day 15 post-infection",5.5 worms
same,Reduction of infectivity in vivo of treated embryonated eggs,"[4]; washed, 30 eggs by oral gavage to mice, worms counted day 15, versus DMSO control",~54%
same,EC50,[1],> 100 µM
same,EC50,[2],> 100 µM
O=C1COCc2cc(-c3cccnc3)ccc2N1CC1CCCCC1 [Compound 2],EC50,[3]; [11],52 µM
same,COMBINED_SCREEN_ACTIVITY,[3],11.5091
same,PRIMARY_SCREEN_MINUS_LOG_FOLD_CHANGE_MOVEMENT,[3],10.3993
same,SECONDARY_SCREEN_MINUS_LOG_FOLD_CHANGE_MOVEMENT,[3],12.6188
same,EC50 at 72 h,[5],> 100 µM
same,EC50 at 72 h,[6],> 100 µM
C/C=C/c1cc(OC)c2c(c1)OCO2 [isomyristicin],Activity against T. muris,[7],activity against T. muris
Cc1ccc(CN2C(=O)COCc3cc(Br)ccc32)cc1 [Compound 4],EC50,[3]; [11],35 µM
same,COMBINED_SCREEN_ACTIVITY,[3],11.5841
same,PRIMARY_SCREEN_MINUS_LOG_FOLD_CHANGE_MOVEMENT,[3],10.5493
same,SECONDARY_SCREEN_MINUS_LOG_FOLD_CHANGE_MOVEMENT,[3],12.6188
same,EC50 at 72 h,[5],63 µM
same,EC50 at 72 h,[6],47 µM
ficin,Effect on motility of T. muris parasites in vitro,[8],rapidly reduce motility
"c1ccc([C@H]2CN3CCSC3=N2)cc1 [Levamisole, reference compound]",EC50,"[3]; single adult worms, 24 hours incubation, automated motility assay, EC50 ± standard error, n = 5 (OX03144 n = 10), read-out: EC50, attenuation of ex vivo T. muris adult motility",8 µM
same,"Single-dose cure rate, trichiuriasis",[9],9%
O=c1cc(-c2ccc(O)c(O)c2)oc2cc(O)cc(O)c12 [luteolin],Activity against T. muris,[7],activity against T. muris
B1,Effect on motility of T. muris parasites in vitro,[8],rapidly reduce motility
